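Tested at 5 concentrations; 48 h exposure; 96-well plates; endpoints linearly interpolated, else capped at highest concentration. GI50 = concentration required for 50% inhibition of growth. TGI: total growth inhibition.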
Key:
Test in all cases: growth of human tumour cells (NCI), 48 h; in the data active = GI50 below about 0.43 µM; inactive = the rest
[1] = tested on: UACC-257 melanoma
[2] = tested on: ACHN renal
[3] = tested on: SF-539 CNS
[4] = tested on: OVCAR-8 ovarian
[5] = tested on: OVCAR-5 ovarian
[6] = tested on: SR leukemia
[7] = tested on: U251 CNS
[8] = tested on: RXF 393 renal
[9] = tested on: SF-268 CNS
[10] = tested on: IGROV1 ovarian
[11] = tested on: MCF7 breast
[12] = tested on: CCRF-CEM leukemia
[13] = tested on: NCI-H226 lung
[14] = tested on: SNB-19 CNS
[15] = tested on: SK-MEL-2 melanoma
[16] = tested on: PC-3 prostate
[17] = tested on: HOP-92 NSCLC
[18] = tested on: OVCAR-4 ovarian
[19] = tested on: NCI-H23 lung
[20] = tested on: COLO 205 colon
[21] = tested on: UACC-62 melanoma
[22] = tested on: MDA-MB-231 breast
[23] = tested on: NCI-H460 lung
[24] = tested on: LOX IMVI melanoma
[25] = tested on: SK-MEL-28 melanoma
[26] = tested on: HCT-15 colon
[27] = tested on: HCT-116 colon
[28] = tested on: SF-295 CNS
[29] = tested on: T-47D breast
[30] = tested on: MOLT-4 leukemia
[31] = tested on: MALME-3M melanoma
[32] = tested on: DU-145 prostate
[33] = tested on: SK-OV-3 ovarian
[34] = tested on: CAKI-1 renal
[35] = tested on: RPMI-8226 leukemia
[36] = tested on: OVCAR-3 ovarian
[37] = tested on: MDA-MB-435
[38] = tested on: TK-10 renal
[39] = tested on: BT-549 breast
[40] = tested on: SW-620 colon
[41] = tested on: HOP-62 NSCLC
[42] = tested on: 786-0 renal
[43] = tested on: HCC-2998 colon
[44] = tested on: M14 melanoma
[45] = tested on: K-562 leukemia
[46] = tested on: SNB-75 CNS
[47] = tested on: HT29 colon
[48] = tested on: SN12C renal
[49] = tested on: A498 renal
[50] = tested on: NCI/ADR-RES ovarian
[51] = tested on: UO-31 renal
[52] = tested on: NCI-H522 lung
[53] = tested on: SK-MEL-5 melanoma
[54] = tested on: KM12 colon
[55] = tested on: A549 NSCLC
[56] = tested on: HS 578T breast
[57] = tested on: HL-60(TB) leukemia

CCCOc1ccc2sc(NC(=O)OC)nc2c1
5.24 µM: TGI [57]
13.5 µM: TGI [20]
> 47.5 µM: TGI [50]
active: GI50 [6] 0.36 µM | GI50 [37] 0.215 µM | GI50 [45] 0.419 µM
inactive: GI50 [1] > 100 µM | GI50 [2] > 25.1 µM | GI50 [3] 2.91 µM | GI50 [4] 5 µM | GI50 [5] > 100 µM | GI50 [7] 2.42 µM | GI50 [8] 2.71 µM | GI50 [9] > 100 µM | GI50 [11] 1.08 µM | GI50 [12] 2.07 µM | GI50 [13] > 100 µM | GI50 [14] 10.2 µM | GI50 [15] 2.05 µM | GI50 [16] 3.48 µM | GI50 [17] 3.38 µM | GI50 [18] > 100 µM | GI50 [19] 5.77 µM | GI50 [20] 0.838 µM | GI50 [21] 3.64 µM | GI50 [22] > 100 µM | GI50 [23] 3.11 µM | GI50 [24] 5.66 µM | GI50 [25] 18.6 µM | GI50 [26] 0.611 µM | GI50 [27] 1.06 µM | GI50 [28] 2.69 µM | GI50 [29] 2.94 µM | GI50 [30] 2.73 µM | GI50 [31] 3.81 µM | GI50 [32] 4.05 µM | GI50 [33] 4.36 µM | GI50 [34] 2.87 µM | GI50 [35] 2.65 µM | GI50 [36] 2.27 µM | GI50 [38] > 24.5 µM | GI50 [39] 3.81 µM | GI50 [40] 0.544 µM | GI50 [41] 4.9 µM | GI50 [42] > 28.2 µM | GI50 [43] 24.5 µM | GI50 [44] 1.26 µM | GI50 [46] 2.58 µM | GI50 [47] 0.465 µM | GI50 [48] 6.2 µM | GI50 [49] 2.34 µM | GI50 [50] 0.793 µM | GI50 [51] 6.07 µM | GI50 [52] 1.69 µM | GI50 [53] 1.12 µM | GI50 [54] 0.627 µM | GI50 [55] 4.2 µM | GI50 [56] 3.48 µM | GI50 [57] 0.616 µM
> 100 µM: TGI [1] | TGI [2] | TGI [3] | TGI [4] | TGI [5] | TGI [6] | TGI [7] | TGI [9] | TGI [10] | TGI [11] | TGI [13] | TGI [14] | TGI [15] | TGI [16] | TGI [17] | TGI [18] | TGI [19] | TGI [21] | TGI [22] | TGI [23] | TGI [24] | TGI [25] | TGI [26] | TGI [27] | TGI [28] | TGI [29] | TGI [30] | TGI [31] | TGI [32] | TGI [33] | TGI [34] | TGI [35] | TGI [38] | TGI [39] | TGI [40] | TGI [41] | TGI [42] | TGI [43] | TGI [44] | TGI [45] | TGI [46] | TGI [47] | TGI [48] | TGI [51] | TGI [53] | TGI [54] | TGI [55] | TGI [56]
> 25 µM: TGI [52]
19.9 µM: TGI [36]
> 28.4 µM: TGI [12]
> 29.3 µM: TGI [8]
> 27.1 µM: TGI [49]
0.587 µM: TGI [37]

From PubChem BioAssay (NCI)
